ChEMBL document CHEMBL1201861, “Genomics of Drug Sensitity in Cancer screening data, Wellcome Trust Sanger Institute”

Columns and labels:
Experiment in all cases: cells
Settings in all cases: Homo sapiens
MMAC-SF = type: functional, cell-based;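 note: growth inhibition of human MMAC-SF cells, read out with a cell viability assay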
Description: SANGER: Inhibition of human MMAC-SF cell growth in a cell viability assay.

Ramos-2G6-4C10 = type: functional, cell-based;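 note: growth inhibition of the cell line, measured by a cell viability read-out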
Description: SANGER: Inhibition of human Ramos-2G6-4C10 cell growth in a cell viability assay.

GI-1 = type: functional, cell-based;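 note: growth inhibition of human GI-1 cells, measured with a cell viability readout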
Description: SANGER: Inhibition of human GI-1 cell growth in a cell viability assay.

ETK-1 = type: functional, cell-based;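 note: growth inhibition of human ETK-1 cells, read out with a cell viability assay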
Description: SANGER: Inhibition of human ETK-1 cell growth in a cell viability assay.

TE-6 = type: functional, cell-based;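 note: growth inhibition of TE-6 cells, read out with a cell viability assay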
Description: SANGER: Inhibition of human TE-6 cell growth in a cell viability assay.

SHP77 = type: functional, cell-based, SHP-77;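 note: growth inhibition of human SHP-77 cells measured by a cell viability assay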
Description: SANGER: Inhibition of human SHP-77 cell growth in a cell viability assay.

JVM-3 = type: functional, cell-based;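 note: growth inhibition of human JVM-3 cells, read out with a cell viability assay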
Description: SANGER: Inhibition of human JVM-3 cell growth in a cell viability assay.

ES1 = type: functional, cell-based;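 note: growth inhibition of ES1 cells, read out with a cell viability assay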
Description: SANGER: Inhibition of human ES1 cell growth in a cell viability assay.

NCI-H226 = type: functional, cell-based;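 note: cell viability read-out used to gauge growth inhibition of the cells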
Description: SANGER: Inhibition of human NCI-H226 cell growth in a cell viability assay.

BB30-HNC = type: functional, cell-based;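 note: growth inhibition of the cultured cell line, read out by a cell viability assay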
Description: SANGER: Inhibition of human BB30-HNC cell growth in a cell viability assay.

SNB-75 = type: functional, cell-based;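 note: cell viability assay measuring growth inhibition of human SNB-75 cells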
Description: SANGER: Inhibition of human SNB75 cell growth in a cell viability assay.

LB1047-RCC = type: functional, cell-based;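 note: inhibition of cell growth, determined with a cell viability assay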
Description: SANGER: Inhibition of human LB1047-RCC cell growth in a cell viability assay.

COLO-829 = type: functional, cell-based
Description: SANGER: Inhibition of human COLO-829 cell growth in a cell viability assay.

QIMR-WIL = type: functional, cell-based;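 note: growth inhibition of QIMR-WIL cells, read out with a cell viability assay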
Description: SANGER: Inhibition of human QIMR-WIL cell growth in a cell viability assay.

UACC-257 = type: functional, cell-based
Description: SANGER: Inhibition of human UACC-257 cell growth in a cell viability assay.

HT = type: functional, cell-based
Description: SANGER: Inhibition of human HT cell growth in a cell viability assay.

A4-Fuk = type: functional, cell-based;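 note: growth inhibition of A4-Fuk cells, read out by a cell viability assay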
Description: SANGER: Inhibition of human A4-Fuk cell growth in a cell viability assay.

MFH-ino = type: functional, cell-based;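 note: growth inhibition of human MFH-ino cells, read out by a cell viability assay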
Description: SANGER: Inhibition of human MFH-ino cell growth in a cell viability assay.

NB6 = type: functional, cell-based
Description: SANGER: Inhibition of human NB6 cell growth in a cell viability assay.

KM-H2 = type: functional, cell-based;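 note: growth inhibition of KM-H2 cells, read out by a cell viability assay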
Description: SANGER: Inhibition of human KM-H2 cell growth in a cell viability assay.

LB831-BLC = type: functional, cell-based;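 note: growth inhibition of LB831-BLC cells, read out with a cell viability assay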
Description: SANGER: Inhibition of human LB831-BLC cell growth in a cell viability assay.

DOHH-2 = type: functional, cell-based;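 note: growth inhibition of human DOHH-2 cells, read out with a cell viability assay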
Description: SANGER: Inhibition of human DOHH-2 cell growth in a cell viability assay.

ES3 = type: functional, cell-based;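 note: growth inhibition of ES3 cells, read out with a cell viability assay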
Description: SANGER: Inhibition of human ES3 cell growth in a cell viability assay.

BB65-RCC = type: functional, cell-based;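 note: growth inhibition of the cell line, measured with a cell viability assay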
Description: SANGER: Inhibition of human BB65-RCC cell growth in a cell viability assay.

MHH-PREB-1 = type: functional, cell-based;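 note: cell viability assay measuring inhibition of proliferation of human MHH-PREB-1 cells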
Description: SANGER: Inhibition of human MHH-PREB-1 cell growth in a cell viability assay.

ACN = type: functional, cell-based;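 note: growth inhibition of the human ACN cell line, read out via cell viability testing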
Description: SANGER: Inhibition of human ACN cell growth in a cell viability assay.

NCI-H1395 = type: functional, cell-based;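 note: cell viability assay read-out quantifying reduced proliferation of human NCI-H1395 cells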
Description: SANGER: Inhibition of human NCI-H1395 cell growth in a cell viability assay.

LS-411N = type: functional, cell-based
SF-126 = type: functional, cell-based;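 note: growth inhibition of human SF126 cells, read out with a cell viability assay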
Description: SANGER: Inhibition of human SF126 cell growth in a cell viability assay.

COLO-824 = type: functional, cell-based
Description: SANGER: Inhibition of human COLO-824 cell growth in a cell viability assay.

RPMI-8866 = type: functional, cell-based
Description: SANGER: Inhibition of human RPMI-8866 cell growth in a cell viability assay.

GT3TKB = type: functional, cell-based;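 note: growth inhibition of the cell line, read out with a cell viability assay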
Description: SANGER: Inhibition of human GT3TKB cell growth in a cell viability assay.

A388 = type: functional, cell-based;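 note: growth inhibition of human A388 cells, read out with a cell viability assay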
Description: SANGER: Inhibition of human A388 cell growth in a cell viability assay.

L-428 = type: functional, cell-based
Description: SANGER: Inhibition of human L-428 cell growth in a cell viability assay.

TK-10 = type: functional, cell-based;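 note: growth inhibition of TK-10 cells, read out in a cell viability assay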
Description: SANGER: Inhibition of human TK10 cell growth in a cell viability assay.

SK-PN-DW = type: functional, cell-based;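 note: growth inhibition measured with a viability assay on these cells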
Description: SANGER: Inhibition of human SK-PN-DW cell growth in a cell viability assay.

NB69 = type: functional, cell-based;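 note: growth inhibition of NB69 cells, determined by a cell viability assay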
Description: SANGER: Inhibition of human NB69 cell growth in a cell viability assay.

CCRF-CEM = type: functional, cell-based;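 note: inhibition of CCRF-CEM cell growth, measured by a cell viability assay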
Description: SANGER: Inhibition of human CCRF-CEM cell growth in a cell viability assay.

KM12 = type: functional, cell-based;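 note: KM12 cell growth inhibition, read out with a cell viability assay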
Description: SANGER: Inhibition of human KM12 cell growth in a cell viability assay.

DU-4475 = type: functional, cell-based
Description: SANGER: Inhibition of human DU-4475 cell growth in a cell viability assay.

HuTu80 = type: functional, cell-based, HUTU-80;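 note: growth inhibition of HuTu80 human cells, determined with a cell viability readout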
Description: SANGER: Inhibition of human HUTU-80 cell growth in a cell viability assay.

SW 954 = type: functional, cell-based;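 note: growth inhibition of SW954 human cancer cells, read out as cell viability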
Description: SANGER: Inhibition of human SW954 cell growth in a cell viability assay.

KNS-81-FD = type: functional, cell-based;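 note: growth inhibition of KNS-81-FD cells, read out with a cell viability assay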
Description: SANGER: Inhibition of human KNS-81-FD cell growth in a cell viability assay.

HCE-T = type: functional, cell-based;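 note: cell viability assay read-out, reporting inhibition of HCE-T cell growth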
Description: SANGER: Inhibition of human HCE-T cell growth in a cell viability assay.

C2BBe1 = type: functional, cell-based;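 note: growth inhibition of C2BBe1 cells, read out through a viability assay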
Description: SANGER: Inhibition of human C2BBe1 cell growth in a cell viability assay.

LOX IMVI = type: functional, cell-based
Description: SANGER: Inhibition of human LOXIMVI cell growth in a cell viability assay.

TE-10 = type: functional, cell-based;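 note: growth inhibition of TE-10 cells, measured by a cell viability assay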
Description: SANGER: Inhibition of human TE-10 cell growth in a cell viability assay.

OCI-AML2 = type: functional, cell-based;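 note: growth inhibition of OCI-AML2 cells, read out with a cell viability assay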
Description: SANGER: Inhibition of human OCI-AML2 cell growth in a cell viability assay.

NB5 = type: functional, cell-based;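 note: growth inhibition of NB5 cells, read out as cell viability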
Description: SANGER: Inhibition of human NB5 cell growth in a cell viability assay.

ES4 = type: functional, cell-based;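 note: growth inhibition of human ES4 cells, read out by a cell viability assay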
Description: SANGER: Inhibition of human ES4 cell growth in a cell viability assay.

ML-2 = type: functional, cell-based;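 note: growth inhibition of ML-2 cells, measured with a cell viability readout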
Description: SANGER: Inhibition of human ML-2 cell growth in a cell viability assay.

COLO-668 = type: functional, cell-based
Description: SANGER: Inhibition of human COLO-668 cell growth in a cell viability assay.

697 = type: functional, cell-based
Description: SANGER: Inhibition of human 697 cell growth in a cell viability assay.

LS-1034 = type: functional, cell-based
Description: SANGER: Inhibition of human LS-1034 cell growth in a cell viability assay.

A101D = type: functional, cell-based;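 note: growth inhibition of the cell line, measured with a viability assay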
Description: SANGER: Inhibition of human A101D cell growth in a cell viability assay.

ONS-76 = type: functional, cell-based;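 note: growth inhibition of human ONS-76 cells, read out with a cell viability assay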
Description: SANGER: Inhibition of human ONS-76 cell growth in a cell viability assay.

U-87 MG = type: functional, cell-based, U-87MG ATCC;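 note: growth inhibition of the cells measured with a viability assay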
Description: SANGER: Inhibition of human U-87-MG cell growth in a cell viability assay.

DMS-114 = type: functional, cell-based
K562 = type: functional, cell-based
Description: SANGER: Inhibition of human K-562 cell growth in a cell viability assay.

LXF-289 cell line = type: functional, cell-based
Description: SANGER: Inhibition of human LXF-289 cell growth in a cell viability assay.

SNU-C2B = type: functional, cell-based;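 note: cell viability readout used to measure compound-driven suppression of SNU-C2B cell proliferation, IC50 marking half-maximal growth inhibition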
Description: SANGER: Inhibition of human SNU-C2B cell growth in a cell viability assay.

IA-LM = type: functional, cell-based;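 note: cell viability assay measuring growth inhibition of human IA-LM cells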
Description: SANGER: Inhibition of human IA-LM cell growth in a cell viability assay.

TGBC24TKB = type: functional, cell-based;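 note: growth inhibition of human TGBC24TKB cells, read out with a cell viability assay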
Description: SANGER: Inhibition of human TGBC24TKB cell growth in a cell viability assay.

HCE-4 = type: functional, cell-based;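 note: cell viability assay measuring inhibition of growth in the human HCE-4 cell line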
Description: SANGER: Inhibition of human HCE-4 cell growth in a cell viability assay.

Cc1ccc(NC(=O)c2cccc(C(C)(C)C#N)c2)cc1Nc1ccc2ncn(C)c(=O)c2c1
IC50 (MMAC-SF): 40.1 nM
IC50 (Ramos-2G6-4C10): > 4000 nM
IC50 (GI-1): > 4000 nM
IC50 (ETK-1): > 4000 nM
IC50 (TE-6): > 4000 nM
IC50 (SHP77): > 4000 nM
IC50 (JVM-3): > 4000 nM
IC50 (ES1): > 4000 nM
IC50 (NCI-H226): > 4000 nM
IC50 (BB30-HNC): 1960 nM
IC50 (SNB-75): > 4000 nM
IC50 (LB1047-RCC): > 4000 nM
IC50 (COLO-829): 25.6 nM
IC50 (QIMR-WIL): 3230 nM
IC50 (UACC-257): 27.5 nM
IC50 (HT): > 4000 nM
IC50 (A4-Fuk): 484 nM
IC50 (MFH-ino): > 4000 nM
IC50 (NB6): > 4000 nM
IC50 (KM-H2): > 4000 nM
IC50 (LB831-BLC): > 4000 nM
IC50 (DOHH-2): 1990 nM
IC50 (ES3): > 4000 nM
IC50 (BB65-RCC): > 4000 nM
IC50 (MHH-PREB-1): > 4000 nM
IC50 (ACN): < 15.6 nM
IC50 (NCI-H1395): > 4000 nM
IC50 (LS-411N): 91.6 nM
IC50 (SF-126): > 4000 nM
IC50 (COLO-824): > 4000 nM
IC50 (RPMI-8866): > 4000 nM
IC50 (GT3TKB): > 4000 nM
IC50 (A388): > 4000 nM
IC50 (L-428): > 4000 nM
IC50 (TK-10): > 4000 nM
IC50 (SK-PN-DW): > 4000 nM
IC50 (NB69): 191 nM
IC50 (CCRF-CEM): > 4000 nM
IC50 (KM12): 2080 nM
IC50 (DU-4475): 10.2 nM
IC50 (HuTu80): 983 nM
IC50 (SW 954): > 4000 nM
IC50 (KNS-81-FD): > 4000 nM
IC50 (HCE-T): > 4000 nM
IC50 (C2BBe1): > 4000 nM
IC50 (LOX IMVI): > 4000 nM
IC50 (TE-10): > 4000 nM
IC50 (OCI-AML2): 17 nM
IC50 (NB5): 1950 nM
IC50 (ES4): > 4000 nM
IC50 (ML-2): 369 nM
IC50 (COLO-668): > 4000 nM
IC50 697: 364 nM
IC50 (LS-1034): > 4000 nM
IC50 (A101D): 5.82 nM
IC50 (ONS-76): 167 nM
IC50 (U-87 MG): > 4000 nM
IC50 (DMS-114): > 4000 nM
IC50 (K562): 667 nM
IC50 (LXF-289 cell line): > 4000 nM

CC[C@@]1(O)C(=O)OCc2c1cc1n(c2=O)Cc2cc3ccccc3nc2-1 [CAMPTOTHECIN]
IC50 (MMAC-SF): 38.4 nM
IC50 (Ramos-2G6-4C10): 10.5 nM
IC50 (GI-1): 3.37 nM
IC50 (ETK-1): 34.9 nM
IC50 (SNU-C2B): 35.4 nM
IC50 (SHP77): > 100 nM
IC50 (JVM-3): 2.5 nM
IC50 (ES1): 0.0957 nM
IC50 (NCI-H226): 22.5 nM
IC50 (BB30-HNC): 21.5 nM
IC50 (SNB-75): 17.3 nM
IC50 (LB1047-RCC): 7.9 nM
IC50 (COLO-829): 11.7 nM
IC50 (QIMR-WIL): 0.775 nM
IC50 (HT): 29.7 nM
IC50 (A4-Fuk): 1.75 nM
IC50 (IA-LM): 12 nM
IC50 (MFH-ino): 27.1 nM
IC50 (KM-H2): 55.7 nM
IC50 (LB831-BLC): 18.4 nM
IC50 (DOHH-2): 0.602 nM
IC50 (ES3): 0.931 nM
IC50 (BB65-RCC): 1.85 nM
IC50 (MHH-PREB-1): 2.73 nM
IC50 (ACN): 85.7 nM
IC50 (LS-411N): 58.1 nM
IC50 (SF-126): 2.84 nM
IC50 (RPMI-8866): 1.72 nM
IC50 (GT3TKB): 1.76 nM
IC50 (A388): 10.1 nM
IC50 (TGBC24TKB): 53.7 nM
IC50 (TK-10): 55.8 nM
IC50 (SK-PN-DW): 1.16 nM
IC50 (NB69): 0.569 nM
IC50 (CCRF-CEM): 5.55 nM
IC50 (KM12): 75 nM
IC50 (DU-4475): 3.07 nM
IC50 (HuTu80): 3.38 nM
IC50 (SW 954): 20.3 nM
IC50 (KNS-81-FD): 19.4 nM
IC50 (HCE-4): 1.81 nM
IC50 (HCE-T): 5.47 nM
IC50 (C2BBe1): 2.44 nM
IC50 (LOX IMVI): 3.72 nM
IC50 (OCI-AML2): 0.887 nM
IC50 (NB5): 1.92 nM
IC50 (ES4): 1.47 nM
IC50 (ML-2): 2.16 nM
IC50 (COLO-668): 22.3 nM
IC50 697: 2.03 nM
IC50 (LS-1034): > 100 nM
IC50 (ONS-76): 2.41 nM
IC50 (U-87 MG): 6.63 nM
IC50 (DMS-114): 81.1 nM
IC50 (K562): > 100 nM
IC50 (LXF-289 cell line): 7.05 nM
